Experimental data: US8980874B2, “Method and composition for treating diabetic ketoacidosis” (Midwestern University, priority 2009, dated 2015)
“Also recorded” adds a separate entry of the source. Where a name gives a salt, the structure may show the parent alone. Non-standard residues stand in square brackets, D forms with d. Residues, ends and D or L forms follow the SMILES beside them.

Legend:
[1] = tested on: rats induced with neurogenic pulmonary edema; conditions: cited from earlier work
[2] = tested on: rat model of DKA; experiment: Blood glucose in streptozotocin-induced diabetic ketoacidosis rats; format: in vivo; conditions: for blood glucose, Day 4 (pre-tx): baseline before treatment on day 4, mean±SEM; for effect of treatment on blood glucose: day 4, result in words; for blood glucose, Day 4 (end of tx) / blood glucose, Day 4 (1 hour of tx): saline+insulin infusion, alone or after bolus BMS-182874 9 mg/kg or BQ123 1 mg/kg, mean±SEM; for blood glucose, Day 4 (end of tx): fifth hour
Protocol: (§1) Normotensive Sprague Dawley rats were kept on fasting for 2 hours with unlimited access to water. After 2 hours of fasting, rats were injected intraperitoneally with 150 mg/kg of streptozotocin in 0.05 mol/L citric acid, pH 4.3 to induced diabetes (Lam et al., 2005; Yuen et al., 2008), while non-diabetic control rats received an intraperitoneal injection of 0.05 mol/L citrate buffer (Lam et al., 2005; Yuen et al., 2008). Rats were allowed unlimited access to tap water and food. Each day rats were weighed and urine ketone levels were estimated by Urine Reagent Strips, 1K Parameter. Prior to streptozotocin or citrate buffer injection, baseline blood glucose levels were assessed by One Touch Ultra blood glucose strips from Lifescan, Milpitas, Calif., and baseline blood ketone levels were estimated using Cardiochek blood ketone analyzer. Blood glucose and ketone were measured again on day three and four to ensure the onset of hyperglycemia and ketoacidosis. […] Blood samples were withdrawn from the femoral […] for baseline reading prior to start of treatment, after the first hour of treatment, and then at the end of the treatment (fifth hour of experiment).
(§2) The animals were allowed to stabilize for at least 20 minutes following surgical procedures. Body weight, blood glucose, urinary ketone, blood ketone, arterial blood gases, blood electrolytes, mean arterial pressure, pulse pressure, heart rate, brain blood perfusion, brain and lung water content were determined in the following groups
(§3) Group 4: Diabetic saline/insulin treated (D-Saline+insulin treated): Rats were injected with streptozotocin in citrate buffer (150 mg/kg ip) to induce diabetes and ketoacidosis. On day three, rats were treated with 1.5 U/kg regular insulin (Humulin® R (Regular human insulin, rDNA origin). On day four, saline and insulin treatment was carried out. Rats were infused via cannulated femoral vein saline, 0.9% NaCl at 80 mL/kg/hr and 1.5 U/kg/hr regular insulin for one hour. During the next two through four hours, rats were infused with saline, 0.9% NaCl at 40 mL/kg/hr and 1.5 U/kg/hr regular insulin (Yuen et al., 2008).
(§4) Group 5: Diabetic BMS-182874/saline/insulin treated (D-BMS+Saline+insulin treated): Rats were injected with streptozotocin in citrate buffer (150 mg/kg ip) to induce diabetes and ketoacidosis. On day three, rats were treated with 1.5 U/kg regular insulin. On day four, rats were administered a bolus dose of selective ETA receptor antagonist, BMS-182874 (9 mg/kg), then saline and insulin treatment was carried out. Rats were infused via cannulated femoral vein saline, 0.9% NaCl at 80 mL/kg/hr and 1.5 U/kg/hr regular insulin for one hour. During the next two through four hours rats were infused with saline, 0.9% NaCl at 40 mL/kg/hr and 1.5 U/kg/hr regular insulin.
(§5) Group 6: Diabetic BQ123/saline/insulin treated (D-BQ+saline+insulin treated): Same as above for Group 5, except BQ123 (1 mg/kg body weight) is used as a substitute for BMS-182874 (9 mg/kg).
(§6) Data are presented as mean±SEM. The significance of differences was estimated by one-way analysis of variance (intra group comparison with respect to base line data) and two-way analysis of variance (inter group comparison with respect to corresponding time points from each groups) followed by application of the Dunnett's Multiple Comparisons and Bonferroni test respectively. A P value of less than 0.05 was considered to be significant. The statistical analysis was processed with GraphPad Prism software Version 5.00.

[3] = tested on: rat model of DKA; experiment: Brain and lung water content in diabetic ketoacidosis rats; format: in vivo; conditions: end of treatment; for effect on lung water content (pulmonary edema): FIG. 7, result in words; for effect on brain water content (cerebral edema): FIG. 8, result in words
Protocol: Water content in the lung and brain was determined to assess brain and pulmonary edema. Assessment of brain and lung water content was carried out as follows. At the end of treatment the animal was sacrificed and trachea was immediately tied, then the lungs were dissected out. The skull was opened and brain dissected out. Brain and lungs were rinsed with saline, and weighed (wet weight). The brain and lungs were kept for drying in an oven at a temperature of 60° C. for 72 hours, then weighed again (dry weight). The percent water content was calculated using the formula: [(wet weight−dry weight)/wet weight×100].
as §3, §4, §5, §6

[4] = tested on: rat model of DKA; experiment: Blood ketone levels in diabetic ketoacidosis rats; format: in vivo; conditions: for blood ketone levels, Day (pre tx): baseline before treatment; for blood ketone levels, Day (pre tx) / blood ketone levels, Day 4 (end of tx): mean±SEM; for effect of treatment on blood ketones: day 4, result in words (Table 2, FIG. 2); for blood ketone levels, Day 4 (end of tx): saline+insulin, alone or after bolus BMS-182874 9 mg/kg or BQ123 1 mg/kg
Protocol: as §1, §2, §3, §4, §5, §6

[5] = tested on: intrathecal (IT) injection of ET-1 into rats; conditions: pre-treatment, intrathecal ET-1 in rats; cited from earlier work

Compound | effect on hypoxia and hypercapnea [1] | blood glucose, Day 4 (pre-tx) [2] [mg/dL] | effect of treatment on blood glucose [2] | blood glucose, Day 4 (end of tx) [2] [mg/dL] | blood glucose, Day 4 (1 hour of tx) [2] [mg/dL] | effect on lung water content (pulmonary edema) [3] | effect on brain water content (cerebral edema) [3] | blood ketone levels, Day (pre tx) [4] [mg/dL] | effect of treatment on blood ketones [4] | blood ketone levels, Day 4 (end of tx) [4] [mg/dL] | effect on pulmonary edema [5] | reduction of mortality rate [5] [%] | effect of treatment on blood ketones ([4]; hydrochloride) | effect of treatment on blood ketones ([4]; listed as BMS, hydrochloride)
CC(C)C[C@@H]1NC(=O)[C@@H](C(C)C)NC(=O)[C@@H]2CCCN2C(=O)[C@@H](CC(=O)O)NC(=O)[C@@H](Cc2c[nH]c3ccccc23)NC1=O [BQ123, Cyclo(D-Trp-D-Asp-Pro-D-Val-Leu)] (cyclo(L[dW][dD]P[dV])) | ameliorated | 484 ± 17 | did not significantly affect blood glucose | 312 ± 55 | 462 ± 55 | restored lung water content | restored brain water content | 28.22 ± 3.14 | particularly marked decrease in blood ketones; also recorded: significantly decrease the blood ketones | 5.2 ± 0.36 | prevented pulmonary edema | 50 |  | 
Insulin: Humulin® R (Regular human insulin, rDNA origin), infused with saline |  | 530 ± 20 | produced a significant decrease in blood glucose | 200 ± 20 | 444 ± 26 | restored lung water content | restored brain water content | 31.925 ± 5.28 | produced a significant decrease in blood ketones | 12.8 ± 4.04 |  |  |  | 
Cc1noc(NS(=O)(=O)c2cccc3c(N(C)C)cccc23)c1C [BMS-182874, (5-Dimethylamino)-N-(3,4-dimethyl-5-isoxazolyl)-1-naphthalene sulfonamide hydrochloride] |  | 522 ± 18 | did not significantly affect blood glucose | 263 ± 32 | 446 ± 36 | restored lung water content | restored brain water content | 31.01 ± 2.29 |  | 14.65 ± 2.70 |  |  | did not significantly affect blood ketones | produced a significant decrease in blood ketones
